Data reported in ChEMBL document CHEMBL1201862, “PubChem BioAssay data set” (2004).
The source made the active and inactive calls.

Experiments:
[1] = cytotoxicity toward NIH3T3 fibroblasts, dose response, counter-screen, cell-based, ATP luminescence, mouse fibroblasts (AID 2010); assay type: functional;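 further: cells exposed to compound for about 90 hours before reading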
HEK293 = assay: inhibitors of LMP1-driven NF-kB reporter, dose response, cell-based, HEK293, luciferase, cherry-pick (AID 588343); assay type: functional; details: Homo sapiens
[2] = inhibitors of intracellular T. cruzi replication, confirmation, NIH3T3 host cells, beta-gal luminescence (AID 2044); assay type: functional, cell-based;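 further: intracellular parasites grown in NIH/3T3 mouse fibroblasts as host cells; luminescent beta-galactosidase reporter signal from transgenic T. cruzi replicating inside host cells; inhibitors lower the luminescence signal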
BJ [3] = assay: cytotoxicity toward BJ-TERT-LT-ST fibroblasts, dose response, cell-based, RAS-independent, luminescence (AID 1935); assay type: functional; details: Homo sapiens;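 further: BJ fibroblasts immortalized with TERT plus LT and ST oncogenes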
[4] = target: ATP-dependent molecular chaperone HSP82 (Candida albicans (strain WO-1) (Yeast), UniProt C4YTQ8); assay: loss of DOC-induced GRE-beta-galactosidase reporter signal, dose response, Hsp90 inhibitor project, S. cerevisiae, luminescence (AID 2400); assay type: functional, cell-based;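 further: beta-galactosidase luminescence from glucocorticoid response element reporter as proxy for Hsp90 function; inhibitor potency where signal loss means Hsp90 inhibition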
BJ [5] = assay: cytotoxicity toward BJ-TERT fibroblasts, dose response, cell-based, RAS-independent, luminescence (AID 1933); assay type: functional; details: Homo sapiens
BJ [6] = assay: cells; assay type: functional, cell-based; details: Homo sapiens
cells [7] = assay type: functional, cell-based
cells [8] = assay type: functional, cell-based; remark: listed apart in the source
[9] = C. albicans growth with fluconazole, confirmation, fluorescence, retest (AID 2467); assay type: functional, cell-based
[10] = target: T1, Serine/threonine-protein phosphatase (Candida dubliniensis (strain CD36 / CBS 7987 / NCPF 3949 / NRRLY-17841) (Yeast), UniProt B9W6M3); assay: calcineurin pathway inhibitors in yeast reporter, dose response, S. cerevisiae, CDRE-lacZ, luminescence, secondary (AID 2388); assay type: functional, cell-based;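 further: yeast reporter cells carrying a calcineurin-responsive lacZ construct stimulated with calcium chloride; luminescent beta-galactosidase reporter signal in whole cells rather than isolated phosphatase activity; potency for inhibition where a drop in reporter signal means calcineurin blockade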
T1 sequence (B9W6M3 whole entry): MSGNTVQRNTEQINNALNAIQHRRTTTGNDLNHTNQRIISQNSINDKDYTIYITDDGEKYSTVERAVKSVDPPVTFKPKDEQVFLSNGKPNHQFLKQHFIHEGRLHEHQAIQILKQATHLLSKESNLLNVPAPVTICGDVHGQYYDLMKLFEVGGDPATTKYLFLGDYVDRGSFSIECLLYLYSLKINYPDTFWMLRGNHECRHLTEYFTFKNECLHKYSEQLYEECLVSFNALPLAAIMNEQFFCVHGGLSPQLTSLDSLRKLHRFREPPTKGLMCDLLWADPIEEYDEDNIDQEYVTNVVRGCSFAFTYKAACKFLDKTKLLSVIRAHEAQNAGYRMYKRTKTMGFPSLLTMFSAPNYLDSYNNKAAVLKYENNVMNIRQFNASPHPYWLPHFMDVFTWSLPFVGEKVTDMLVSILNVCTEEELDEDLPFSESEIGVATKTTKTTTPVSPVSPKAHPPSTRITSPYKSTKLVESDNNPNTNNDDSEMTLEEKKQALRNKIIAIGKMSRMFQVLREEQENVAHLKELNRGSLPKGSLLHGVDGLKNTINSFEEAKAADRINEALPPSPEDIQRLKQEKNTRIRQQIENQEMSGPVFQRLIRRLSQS

[11] = cytotoxicity toward DRD oncogenic fibroblasts, dose response, cell-based, non-viral oncogenic, luminescence (AID 1934); assay type: functional; details: Homo sapiens
[12] = Luminescence-based counterscreen assay for KLF5 inhibitors: dose response cell-based high throughput screening assay to identify cytotoxic compounds using the IEC-6 intestinal epithelial cell line. [Related pubchem assays: 1700 (Primary screen.), 1834 (Confirmation screen.), 1858 (Summary AID.), 1905 (Counterscreen.)]; assay type: functional
[13] = NIH-3T3 fibroblast cytotoxicity, dose response, cytotoxicity control, cell-based, fluorescence, Alamar Blue, secondary assay (AID 2327); assay type: functional;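 further: NIH-3T3 mouse fibroblasts cultured with fluconazole at 8 µg/mL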
[14] = target: Latent membrane protein 1 (Human herpesvirus 4 (strain B95-8), UniProt P03230); assay: TES1-eGFP NF-kB reporter inhibition versus Tet-On dsRED, dose response, selectivity assay for LMP1 NF-kB inhibitor project, imaging, HEK293T, dual-color eGFP/dsRED, cherry-picks (AID 588398); assay type: functional, cell-based
[15] = target: Lysine-specific demethylase 4C (Homo sapiens, UniProt Q9H3R0); assay: GASC-1 (JMJD2C) histone demethylase inhibitors, dose response, biochemical, DELFIA europium, cherry-picked samples (AID 488835); assay type: functional
[16] = target: Apoptotic protease-activating factor 1 (Homo sapiens, UniProt O14727); assay type: functional
[17] = target: T2, Sentrin-specific protease 7 (Homo sapiens, UniProt Q9BQF6); assay: SENP7 protease inhibitors, SAR follow-up, biochemical, luminescence, set 2 (AID 588600); assay type: functional
T2 sequence (Q9BQF6 whole entry): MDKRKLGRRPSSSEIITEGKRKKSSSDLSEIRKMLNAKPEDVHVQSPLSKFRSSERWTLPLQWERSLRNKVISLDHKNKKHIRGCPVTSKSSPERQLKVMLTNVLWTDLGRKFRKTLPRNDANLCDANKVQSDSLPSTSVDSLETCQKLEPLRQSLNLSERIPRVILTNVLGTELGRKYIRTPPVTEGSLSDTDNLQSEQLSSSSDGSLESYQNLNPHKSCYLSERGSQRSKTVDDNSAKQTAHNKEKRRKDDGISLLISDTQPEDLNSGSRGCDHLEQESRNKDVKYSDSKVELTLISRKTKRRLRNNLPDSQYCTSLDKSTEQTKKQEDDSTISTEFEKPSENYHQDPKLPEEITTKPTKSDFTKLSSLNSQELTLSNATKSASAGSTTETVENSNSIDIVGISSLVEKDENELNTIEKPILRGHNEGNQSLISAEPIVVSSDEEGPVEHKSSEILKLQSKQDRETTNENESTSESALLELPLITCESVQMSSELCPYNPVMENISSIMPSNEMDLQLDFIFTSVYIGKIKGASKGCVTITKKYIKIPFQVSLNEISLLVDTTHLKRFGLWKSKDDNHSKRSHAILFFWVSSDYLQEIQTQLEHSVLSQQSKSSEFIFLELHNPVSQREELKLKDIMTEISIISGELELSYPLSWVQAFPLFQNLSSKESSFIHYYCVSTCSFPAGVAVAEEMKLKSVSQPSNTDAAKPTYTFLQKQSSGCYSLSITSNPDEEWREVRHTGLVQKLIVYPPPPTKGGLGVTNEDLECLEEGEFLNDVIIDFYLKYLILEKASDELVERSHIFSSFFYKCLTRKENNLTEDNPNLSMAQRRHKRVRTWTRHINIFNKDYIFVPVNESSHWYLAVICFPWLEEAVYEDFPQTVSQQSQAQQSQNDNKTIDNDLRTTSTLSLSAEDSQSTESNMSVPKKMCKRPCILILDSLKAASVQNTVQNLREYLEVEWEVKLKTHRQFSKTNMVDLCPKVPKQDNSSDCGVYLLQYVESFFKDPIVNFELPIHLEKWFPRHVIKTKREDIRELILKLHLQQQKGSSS

[18] = target: T2, Sentrin-specific protease 7; assay: SENP7 protease inhibitors, SAR follow-up, biochemical, luminescence (AID 504497); assay type: functional
[19] = target: T3, Sentrin-specific protease 8 (Homo sapiens, UniProt Q96LD8); assay: SENP8 protease inhibitors, SAR follow-up, biochemical, luminescence, set 2 (AID 588601); assay type: functional
T3 sequence (Q96LD8 whole entry): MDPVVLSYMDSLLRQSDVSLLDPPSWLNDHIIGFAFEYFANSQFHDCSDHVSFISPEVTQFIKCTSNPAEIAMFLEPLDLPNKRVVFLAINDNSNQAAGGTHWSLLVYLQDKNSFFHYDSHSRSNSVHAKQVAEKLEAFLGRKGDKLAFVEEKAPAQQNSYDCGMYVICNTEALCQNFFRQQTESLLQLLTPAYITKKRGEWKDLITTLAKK

[20] = target: T4, Sentrin-specific protease 6 (Homo sapiens, UniProt Q9GZR1); assay: SENP6 protease inhibitors, SAR follow-up, biochemical, luminescence, set 2 (AID 588598); assay type: functional
T4 sequence (Q9GZR1 whole entry): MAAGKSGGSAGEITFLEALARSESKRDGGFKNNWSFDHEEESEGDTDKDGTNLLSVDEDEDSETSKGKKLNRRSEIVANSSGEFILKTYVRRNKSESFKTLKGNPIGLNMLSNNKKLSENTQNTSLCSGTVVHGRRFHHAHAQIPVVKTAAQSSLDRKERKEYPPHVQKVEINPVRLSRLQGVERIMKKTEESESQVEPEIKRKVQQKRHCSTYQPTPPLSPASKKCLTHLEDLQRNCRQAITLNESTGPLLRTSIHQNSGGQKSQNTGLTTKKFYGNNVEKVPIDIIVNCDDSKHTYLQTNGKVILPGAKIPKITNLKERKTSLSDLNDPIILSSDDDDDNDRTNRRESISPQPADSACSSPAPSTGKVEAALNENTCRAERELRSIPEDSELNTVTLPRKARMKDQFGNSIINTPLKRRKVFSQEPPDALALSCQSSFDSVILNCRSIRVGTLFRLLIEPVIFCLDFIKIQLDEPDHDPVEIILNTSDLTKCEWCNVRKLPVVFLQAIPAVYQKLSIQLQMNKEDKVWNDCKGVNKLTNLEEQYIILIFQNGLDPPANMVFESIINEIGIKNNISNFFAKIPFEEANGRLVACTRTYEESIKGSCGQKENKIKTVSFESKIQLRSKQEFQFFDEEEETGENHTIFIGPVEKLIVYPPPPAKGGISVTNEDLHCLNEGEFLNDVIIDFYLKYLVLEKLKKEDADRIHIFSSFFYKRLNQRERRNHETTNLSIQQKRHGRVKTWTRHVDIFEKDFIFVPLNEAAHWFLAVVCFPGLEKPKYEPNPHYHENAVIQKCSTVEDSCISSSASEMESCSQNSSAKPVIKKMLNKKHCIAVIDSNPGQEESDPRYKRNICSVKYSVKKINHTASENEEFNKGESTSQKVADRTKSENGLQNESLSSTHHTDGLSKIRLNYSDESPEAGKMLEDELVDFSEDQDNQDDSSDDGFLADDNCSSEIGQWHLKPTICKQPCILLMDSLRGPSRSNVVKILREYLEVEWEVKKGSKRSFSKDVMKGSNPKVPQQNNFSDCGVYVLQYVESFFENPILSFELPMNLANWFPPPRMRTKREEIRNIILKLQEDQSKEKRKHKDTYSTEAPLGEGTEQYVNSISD

[21] = target: T3, Sentrin-specific protease 8; assay: SENP8 protease inhibitors, SAR follow-up, biochemical, luminescence (AID 504501); assay type: functional
Caspase-3 [22] = target: T5, Caspase-3 (Homo sapiens, UniProt P42574); assay: caspase-3 inhibitors as off-family protease, SAR follow-up, selectivity assay for SENP protease inhibitor project, biochemical, luminescence, set 2 (AID 588599); assay type: functional
T5 sequence (P42574 whole entry): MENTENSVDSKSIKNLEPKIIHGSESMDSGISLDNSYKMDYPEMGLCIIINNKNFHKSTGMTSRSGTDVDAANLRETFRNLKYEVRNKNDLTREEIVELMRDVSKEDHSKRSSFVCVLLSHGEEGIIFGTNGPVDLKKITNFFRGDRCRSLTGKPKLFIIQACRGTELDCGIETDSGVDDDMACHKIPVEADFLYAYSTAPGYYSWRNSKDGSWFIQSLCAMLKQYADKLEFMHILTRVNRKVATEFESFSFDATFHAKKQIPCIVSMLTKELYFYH

Caspase-3 [23] = target: T5, Caspase-3; assay: SAR Analysis of small molecule inhibitors of Sentrin-specific proteases (SENPs) using a Caspase-3 Selectivity assay. [Related pubchem assays (depositor defined):AID2540, AID2599, AID434973, AID489001]; assay type: functional
[24] = target: T4, Sentrin-specific protease 6; assay: SAR Analysis of small molecule inhibitors of Sentrin-specific protease 6 (SENP6) using a Luminescent assay. [Related pubchem assays (depositor defined):AID2582, AID2599]; assay type: functional
INS1 [25] = assay: protection from cytokine-induced mitochondrial depolarization, dose response, cell-based, INS-1E, JC-1 fluorescence ratio, dry powder (AID 488931); assay type: functional; details: Rattus norvegicus
INS1 [26] = assay: protection from cytokine-driven beta-cell apoptosis, dose response, JC-1 fluorescence, INS-1E, dry powder, set 2 (AID 488867); assay type: functional, cell-based; details: Rattus norvegicus
INS1 [27] = assay: protection of INS-1E cells from cytokine death, dose response, ATP luminescence, dry powder (AID 488844); assay type: functional, cell-based; details: Rattus norvegicus
INS1 [28] = assay: inhibitors of cytokine-induced nitrite release, dose response, cell-based, Griess absorbance, INS-1E, dry powder, set 2 (AID 488868); assay type: functional; details: Rattus norvegicus
INS1 [29] = assay: inhibitors of cytokine-induced nitrite release, dose response, cell-based, Griess absorbance, INS-1E, dry powder (AID 488866); assay type: functional; details: Rattus norvegicus

Chain of Apoptotic protease-activating factor 1 (O14727 whole entry): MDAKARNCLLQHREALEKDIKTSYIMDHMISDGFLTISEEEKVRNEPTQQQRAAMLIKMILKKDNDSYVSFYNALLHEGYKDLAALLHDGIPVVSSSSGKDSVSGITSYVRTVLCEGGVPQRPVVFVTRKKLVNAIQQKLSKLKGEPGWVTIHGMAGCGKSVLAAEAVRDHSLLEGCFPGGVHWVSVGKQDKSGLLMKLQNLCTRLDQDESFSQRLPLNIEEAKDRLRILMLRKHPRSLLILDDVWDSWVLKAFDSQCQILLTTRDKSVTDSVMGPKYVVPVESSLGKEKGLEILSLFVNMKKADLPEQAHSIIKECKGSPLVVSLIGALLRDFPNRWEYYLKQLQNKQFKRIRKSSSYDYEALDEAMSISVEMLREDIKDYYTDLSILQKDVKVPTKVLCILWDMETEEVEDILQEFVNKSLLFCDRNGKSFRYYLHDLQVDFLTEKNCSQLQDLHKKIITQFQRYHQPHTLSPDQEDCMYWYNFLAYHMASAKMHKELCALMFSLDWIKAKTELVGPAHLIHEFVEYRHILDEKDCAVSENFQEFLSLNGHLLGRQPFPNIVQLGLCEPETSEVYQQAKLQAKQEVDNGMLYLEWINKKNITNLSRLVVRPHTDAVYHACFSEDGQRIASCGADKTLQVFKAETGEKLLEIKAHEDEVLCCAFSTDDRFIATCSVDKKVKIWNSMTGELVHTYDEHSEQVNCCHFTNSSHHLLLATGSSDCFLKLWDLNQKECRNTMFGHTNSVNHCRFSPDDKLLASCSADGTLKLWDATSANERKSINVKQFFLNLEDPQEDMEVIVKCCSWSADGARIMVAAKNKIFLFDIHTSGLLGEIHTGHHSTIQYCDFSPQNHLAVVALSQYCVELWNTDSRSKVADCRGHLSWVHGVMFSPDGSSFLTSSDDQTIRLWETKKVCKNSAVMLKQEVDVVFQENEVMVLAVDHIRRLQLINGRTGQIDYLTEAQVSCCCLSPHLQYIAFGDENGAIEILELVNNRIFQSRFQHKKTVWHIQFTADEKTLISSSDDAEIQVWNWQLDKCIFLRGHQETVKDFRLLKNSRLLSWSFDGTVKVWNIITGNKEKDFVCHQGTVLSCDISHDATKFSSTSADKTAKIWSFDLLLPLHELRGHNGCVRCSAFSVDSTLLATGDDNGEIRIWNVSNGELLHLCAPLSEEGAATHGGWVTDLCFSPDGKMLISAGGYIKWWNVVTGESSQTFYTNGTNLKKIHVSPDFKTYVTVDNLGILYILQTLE
Chain of ATP-dependent molecular chaperone HSP82 (C4YTQ8 whole entry): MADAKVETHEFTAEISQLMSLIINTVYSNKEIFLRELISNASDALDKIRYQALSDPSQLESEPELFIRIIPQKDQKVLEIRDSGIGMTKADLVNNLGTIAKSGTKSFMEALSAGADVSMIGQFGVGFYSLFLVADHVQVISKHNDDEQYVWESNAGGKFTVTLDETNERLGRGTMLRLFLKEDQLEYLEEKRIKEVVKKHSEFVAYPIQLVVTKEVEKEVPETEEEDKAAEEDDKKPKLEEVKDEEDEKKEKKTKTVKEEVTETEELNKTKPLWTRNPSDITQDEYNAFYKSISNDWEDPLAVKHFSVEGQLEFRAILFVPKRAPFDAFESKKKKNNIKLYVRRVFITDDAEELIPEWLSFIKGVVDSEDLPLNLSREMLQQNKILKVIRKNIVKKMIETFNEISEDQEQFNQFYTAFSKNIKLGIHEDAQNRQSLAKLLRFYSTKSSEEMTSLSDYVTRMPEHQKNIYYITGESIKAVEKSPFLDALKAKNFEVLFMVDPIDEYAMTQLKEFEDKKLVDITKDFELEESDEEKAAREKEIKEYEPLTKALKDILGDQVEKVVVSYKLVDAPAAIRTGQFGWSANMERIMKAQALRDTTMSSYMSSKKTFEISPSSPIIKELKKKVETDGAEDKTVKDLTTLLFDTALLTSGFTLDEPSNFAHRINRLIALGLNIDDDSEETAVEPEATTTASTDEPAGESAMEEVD
Chain of Lysine-specific demethylase 4C (Q9H3R0 whole entry): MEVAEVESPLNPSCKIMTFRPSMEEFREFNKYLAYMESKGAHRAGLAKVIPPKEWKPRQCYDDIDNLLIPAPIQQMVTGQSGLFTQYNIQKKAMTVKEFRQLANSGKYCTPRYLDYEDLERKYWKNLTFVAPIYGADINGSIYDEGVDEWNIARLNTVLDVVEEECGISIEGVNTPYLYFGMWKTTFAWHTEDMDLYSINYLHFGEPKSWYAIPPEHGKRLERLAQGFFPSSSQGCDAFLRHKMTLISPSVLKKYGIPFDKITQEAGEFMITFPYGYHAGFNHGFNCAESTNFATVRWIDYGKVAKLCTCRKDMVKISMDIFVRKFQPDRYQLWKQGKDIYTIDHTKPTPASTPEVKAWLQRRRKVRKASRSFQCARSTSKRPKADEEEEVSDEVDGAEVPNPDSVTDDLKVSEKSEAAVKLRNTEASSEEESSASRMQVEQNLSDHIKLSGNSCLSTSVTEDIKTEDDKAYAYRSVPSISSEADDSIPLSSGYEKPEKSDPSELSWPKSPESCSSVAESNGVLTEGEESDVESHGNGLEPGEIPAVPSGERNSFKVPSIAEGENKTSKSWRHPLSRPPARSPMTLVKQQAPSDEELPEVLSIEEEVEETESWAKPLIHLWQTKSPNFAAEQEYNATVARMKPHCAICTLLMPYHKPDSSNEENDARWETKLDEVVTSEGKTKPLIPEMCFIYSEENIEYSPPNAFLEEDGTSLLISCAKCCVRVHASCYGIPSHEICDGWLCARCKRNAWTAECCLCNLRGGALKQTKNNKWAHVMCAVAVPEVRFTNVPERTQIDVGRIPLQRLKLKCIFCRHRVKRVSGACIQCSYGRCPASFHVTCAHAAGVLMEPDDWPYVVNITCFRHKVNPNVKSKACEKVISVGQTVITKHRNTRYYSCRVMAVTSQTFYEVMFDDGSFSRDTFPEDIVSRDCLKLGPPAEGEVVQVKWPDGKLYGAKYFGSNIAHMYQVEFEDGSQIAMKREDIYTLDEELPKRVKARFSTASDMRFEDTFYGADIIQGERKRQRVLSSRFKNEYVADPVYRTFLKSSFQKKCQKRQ
Chain of Latent membrane protein 1 (P03230 whole entry): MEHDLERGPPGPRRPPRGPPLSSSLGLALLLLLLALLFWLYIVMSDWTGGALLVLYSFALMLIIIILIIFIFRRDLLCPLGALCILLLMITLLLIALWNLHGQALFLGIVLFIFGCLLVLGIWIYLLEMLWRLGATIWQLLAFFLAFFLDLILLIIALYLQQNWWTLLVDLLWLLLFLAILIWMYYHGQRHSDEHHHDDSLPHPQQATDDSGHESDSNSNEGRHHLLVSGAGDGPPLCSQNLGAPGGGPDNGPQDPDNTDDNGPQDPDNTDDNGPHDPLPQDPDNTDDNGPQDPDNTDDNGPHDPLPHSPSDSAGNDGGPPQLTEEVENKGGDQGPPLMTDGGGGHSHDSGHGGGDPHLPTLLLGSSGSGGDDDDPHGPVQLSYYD

## Cc1ccc(C(=O)N/N=C/c2c(O)ccc3ccccc23)cn1
[1]
  EC50: 10.9 µM (active)
HEK293
  AC50: 5.41 µM (active)
[2]
  EC50: 1.59 µM (active)
BJ [3]
  EC50: 13.1 µM (active)
[4]
  EC50: > 150 µM (inactive)
BJ [5]
  EC50: 1 µM (active)
BJ [6]
  EC50: 10.4 µM (inconclusive)
Cells [7]
  EC50: > 350 µM (not active)
Cells [8]
  EC50: 6.93 µM (active)
[9]
  EC50: 803 nM (active)
[10]
  EC50: > 180 µM (inactive)
[11]
  EC50: 2.72 µM (active)
[12]
  IC50: 3.96 µM (active)
[13]
  EC50: > 150 µM (inactive)
[14]
  AC50: 9.88 µM (active)

## Oc1cc(N/N=C/c2ccccc2)nc(O)n1
[15]
  AC50: 8.88 µM (active)
[16]
  IC50: 20 µM (active)

## CCCCc1ccc2nc(NC(=O)c3cccs3)sc2c1
[17]
  IC50: 2.22 µM (active)
[18]
  IC50: 1.5 µM (active)
[19]
  IC50: 2.07 µM (active)
[20]
  IC50: 2.04 µM (active)
[21]
  IC50: 2.1 µM (active)
Caspase-3 [22]
  IC50: 4.01 µM (active)
Caspase-3 [23]
  IC50: 4.4 µM (active)
[24]
  IC50: 1.9 µM (active)

## C[C@@H]1CN([C@@H](C)CO)C(=O)c2cccc(NC(=O)Nc3cccc4ccccc34)c2O[C@H]1CN(C)S(=O)(=O)c1ccc(Cl)cc1
INS1 [25]
  AC50: 41.3 µM (active)
INS1 [26]
  AC50: 90.1 µM (active)
INS1 [27]
  AC50: 31.1 µM (active)
INS1 [28]
  AC50: 44.2 µM (active)
INS1 [29]
  AC50: > 195 µM (inactive)
